In brackets after ≈: the same amount, converted by molar mass.
Columns and labels:
[1] = Thermodynamic solubility in biorelevant media; assay type: physicochemical; conditions: thermodynamic from solid
Method: This experiment was designed to evaluate the thermodynamic solubility of Example 2 in various biorelevant media (Blank Fasted State Simulated Intestinal Fluid (FaSSIF) pH 6.5, FaSSIF pH 6.5 and simulated gastric fluid (SGF) without enzyme pH 1.2).
A 10 mM stock solution of Example 2 in dimethyl sulfoxide (DMSO) was prepared. From the 10 mM stock solution, a 1 mM intermediate solution of Example 2 in DMSO was prepared. A working solution of 1 μM of Example 2 was prepared by diluting the intermediate solution in mobile phase solution (methanol: 2 mM ammonium acetate containing suitable internal standard—carbamazepine). The working solution was serially diluted in mobile phase solution up to 8 linearity points to prepare standard solutions for plotting a calibration curve. The area for each standard solution was analyzed using LCMS/MS. The normalized area values were plotted vs. concentration to achieve a calibration equation.
Example 2 (1 mg) was added to 1 mL of each desired biorelevant media (SGF without enzyme pH 1.2, Blank FaSSIF pH 6.5 and FaSSIF pH 6.5) to achieve a theoretical concentration equivalent to 1 mg/mL.
The resulting solutions were then kept on RotoSpin (shaker) at 50 rpm for 4 hours at room temperature (25° C.). After the incubation period, the content was filtered through a 0.45 μm PVDF (hydrophilic) syringe filter and the filtrate was taken for quantification by LCMS/MS. The filtrate was diluted in mobile phase and subsequently, the area under the curve (AUC) was ascertained for diluted sample using LCMS/MS. From the AUC of test sample the corresponding concentration was calculated using 6 to 8 point linearity/calibration curve.

[2] = Plasma concentration-time data after PO dose of Example 2 in Beagle dogs; assay type: in vivo; conditions: dog, PO Example 2, all time points
Method: (§1) Systemic exposure of Example 2 and Intermediate 6 (Example 39 of Applicant's earlier application PCT/GB2021/050638 (WO2021/181122A1)) were assessed in male Sprague-Dawley rats and male Beagle dogs following oral (per os, PO) administration of Example 2. Plasma concentration-time data (mean values±standard deviation) are detailed in Tables 4 and 5.
(§2) Three male Sprague-Dawley rats (weighing 269-270 g) and three male Beagle dogs (weighing 7-10 kg), were administered a single dose of Example 2 via PO route, using the dose and vehicle specified in Table #. Following dosing, blood samples were taken at several time points (pre-dose, 5 min, 15 min, 30 min, 1 h, 2 h, 4 h, 8 h, 12 h and 24 h in both species, plus additional samples at 32 h and 48 h in dog) via serial bleeding of jugular vein (rat) or cephalic vein (dog), and centrifuged to separate plasma for quantitative bioanalysis of Example 2 and Intermediate 6 by LC-MS/MS.

[3] = Plasma concentration-time data after PO dose of Example 2 in Sprague-Dawley rats; assay type: in vivo; conditions: rat, PO Example 2, all time points
Method: as §1, §2

human GPR52 = target: T1, human GPR52 (Homo sapiens, UniProt Q9Y2T5); assay: GPR52 Agonist Functional cAMP Assay; assay type: cell-based; conditions: HEKf cells infected with human GPR52 BacMam, cAMP HTRF, 30 min 37° C.; read-out: pEC50 average (converted)
T1 construct: expressed in transfected cells; host or cells: HEKf suspension cells, BacMam (modified baculovirus) transduction
T1 sequence (Q9Y2T5 whole entry): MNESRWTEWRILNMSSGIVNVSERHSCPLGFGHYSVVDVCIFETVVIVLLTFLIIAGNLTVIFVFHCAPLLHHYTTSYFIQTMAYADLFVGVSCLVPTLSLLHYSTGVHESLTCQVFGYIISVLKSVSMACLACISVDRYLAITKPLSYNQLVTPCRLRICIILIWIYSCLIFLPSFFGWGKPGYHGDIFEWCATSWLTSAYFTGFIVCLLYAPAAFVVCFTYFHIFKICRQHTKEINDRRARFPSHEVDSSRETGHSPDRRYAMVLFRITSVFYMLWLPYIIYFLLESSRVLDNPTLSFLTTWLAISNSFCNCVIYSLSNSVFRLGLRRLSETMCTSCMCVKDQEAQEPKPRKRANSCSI
Method: HEKf suspension cells were infected for 24 h with 0.1% v/v human GPR52 expressing BacMam virus, a modified baculovirus designed for mammalian gene expression. Following BacMam infection, cells were pelleted by centrifugation (335 g, 5 min), resuspended in cell freezing medium (Sigma) and frozen at −150° C. until required. On experiment day, 25 nL GPR52 compound dilutions, prepared in DMSO, were stamped onto proxiplates (PerkinElmer) by a LabCyte ECHO acoustic dispenser. Frozen cells were thawed and resuspended in assay stimulation buffer (Cisbio) containing 0.5 mM 3-iso-butyl-1-methylxanthine (IBMX, Sigma) to achieve a density of 2000 cells per well. 10 μl cells were added to assay plates using a Multidrop Combi Reagent Dispenser (ThermoFisher) before centrifugation (1 min). Cells were incubated with compounds at 37° C. for 30 min prior to addition of cAMP detection reagents (HiRange cAMP kit, Cisbio) which were prepared according to the manufacturer's instructions. Plates were shaken for 1 h at room temperature before reading on a PHERAstar FS plate reader (BMG Labtech) using standard HTRF settings. HTRF ratios were obtained by dividing the acceptor emissions (665 nm) by the donor emissions (620 nm) and multiplying by 10,000. […] Further pharmacokinetic data for Intermediate 6 is provided in Applicant's earlier application PCT/GB2021/050638 (see Example 39).

Rat IV pharmacokinetics = assay type: in vivo, Sprague-Dawley rats; conditions: male, Sprague-Dawley, plasma, IV 1 mg/kg, n = 3
Method: The pharmacokinetic profiles of Intermediate 6 (Example 39 of WO2021/181122A1) were assessed in male Sprague-Dawley rats via intravenous (IV) delivery. Pharmacokinetic data (mean values±standard deviation) for Intermediate 6 (Example 39 of WO2021/181122A1) are detailed in Table 7.
For pharmacokinetic analysis, groups of three male Sprague-Dawley rats, ranging in weight between 200 and 230 g, were administered a single dose of Intermediate 6 (Example 39 of WO2021/181122A1) via IV, using the dose, dose volume and vehicle specified in Table 7. Following dosing, blood samples were taken at several time points (pre-dose, 2 min, 5 min, 15 min, 30 min, 1 h, 3 h, 6 h, 12 h and 24 h for IV) via serial tail vein bleeds, and centrifuged to separate plasma for analysis by LC-MS/MS. WinNonlin v8.2 statistics software (Pharsight Corporation, California, USA) was used to generate pharmacokinetic parameters using non-compartmental analysis.

[4] = tested on: caffeine-induced hyperlocomotor response; assay: Caffeine-induced locomotor activity in rat; assay type: in vivo, Sprague-Dawley rats; conditions: rat, 0.1, 0.3, 1 and 3 mg/kg PO, 60 min before caffeine 15 mg/kg s.c., 2 h activity
Excerpt: Caffeine, a non-selective adenosine receptor antagonist, is a psychostimulant which increases rodent locomotor activity principally via blockade of A2A receptors (Br. J. Pharmacol., 2000, 129, 1465). These receptors are densely expressed on the terminals of GABAergic striatopallidal neurons in the indirect pathway of the basal ganglia, in which dopamine D2 receptors are co-expressed (J. Comp. Neurol., 1998, 401, 163; J. Comp. Neurol., 2001, 431, 331). Tonic activation of A2A receptors decreases the affinity of D2 receptors to dopamine and antagonism of A2A receptors facilitates dopaminergic signalling (Curr. Pharm. Des., 2008, 14, 1468). […] Male Sprague-Dawley rats (200-250 g) were housed in groups with a 12 h light/dark cycle (lights on at 07.00), at an ambient temperature of 21±2° C. and with standard pelleted diet and water ad libitum. Testing was carried out in the light phase. On the day of the experiment, animals were habituated to the locomotor cages for a 60-minute period. Subsequently, they were dosed with vehicle or Intermediate 6 (Example 39 of WO2021/181122A1) (0.1, 0.3, 1 and 3 mg/kg) by the oral route and returned to the appropriate locomotor cage. […] Locomotor activity was assessed for a 2 h period after caffeine treatment. […] SEMs were calculated from the residuals of the statistical model. […]

[5] = Rat IV brain penetration (Kp,uu); assay type: in vivo, Sprague-Dawley rats; conditions: male, Sprague-Dawley, brain and plasma, IV 1 mg/kg, n = 3, unbound brain-to-plasma ratio
Method: Plasma and brain exposure were evaluated to assess the brain penetration of Intermediate 6 (Example 39 of WO2021/181122A1), following IV administration. Unbound brain-to-plasma ratio (Kp,uu) was calculated, as detailed in Table 7, following experimental determination of binding in rat plasma and brain homogenate.
For brain penetration assessment, male Sprague-Dawley rats (n=3) were administered a single 1 mg/kg dose (formulated in 10% DMAC+10% Solutol HS15+80% saline) via the IV route. After 10 min post-dose, animals were sacrificed and brains extracted, homogenised with 2 volumes (w/v) of 50 mM sodium phosphate buffer (pH 7.4), and analysed by LC-MS/MS. Blood samples were removed at the same time point via tail vein bleed, centrifuged and the plasma analysed by LC-MS/MS.
To permit calculation of unbound brain-to-plasma ratio (Kp,uu), test compound binding in rat plasma and brain homogenate was performed, using Rapid Equilibrium Dialysis (RED). […]
After incubation, the contents of each plasma/brain and buffer compartment were removed and mixed with equal volumes of control dialysed buffer or plasma/brain to maintain matrix similarity for analysis. […] Fraction unbound (Fu) in plasma and brain was calculated using the following formula, then used to correct total plasma and brain concentrations to derive the Kp,uu:

Cc1nn(-c2cc(Cc3cc(F)cc(C(F)(F)F)c3)ccn2)c(COP(=O)(O)O)c1C(N)=O [Example 2]
solubility at 4 h ([1]; SGF without enzyme, simulated gastric fluid, SGF, pH 1.2, 25° C.): 13.1 µM (≈ 6.38 µg/mL)
solubility at 4 h ([1]; fassgf or other biorelevant, Blank FaSSIF, pH 6.5, 25° C.): 1890 µM (≈ 922 µg/mL)
solubility at 4 h ([1]; FaSSIF, pH 6.5, 25° C.): 1830 µM (≈ 894 µg/mL)
Plasma concentrations of Example 2 [2]: < 1 ng/mL
Plasma concentrations of Example 2 [3]: < 1 ng/mL

Cc1nn(-c2cc(Cc3cc(F)cc(C(F)(F)F)c3)ccn2)c(CO)c1C(N)=O [Intermediate 6, 1-(4-(3-fluoro-5-(trifluoromethyl)benzyl)pyridin-2-yl)-5-(hydroxymethyl)-3-methyl-1H-pyrazole-4-carboxamide]
EC50 (human GPR52): 6.31 nM
clearance (Rat IV pharmacokinetics): 8.8 ± 1.1 mL/min/kg
effect on caffeine-induced hyperlocomotor response [4]: dose-dependent reduction of the caffeine-induced hyperlocomotor response, reaching statistical significance at 1 and 3 mg/kg
Kp uu at 10 min [5]: 0.42 ± 0.08

Cc1nn(-c2cc(Cc3cc(F)cc(C(F)(F)F)c3)ccn2)c(CO)c1C(=O)NCCO [Intermediate 7, 1-(4-(3-fluoro-5-(trifluoromethyl)benzyl)pyridin-2-yl)-N-(2-hydroxyethyl)-5-(hydroxymethyl)-3-methyl-1H-pyrazole-4-carboxamide]
EC50 (human GPR52): 2.51 nM

Cc1nn(-c2ccnc(Cc3cc(F)cc(C(F)(F)F)c3)c2)c(CO)c1C(N)=O [Intermediate 10, 1-(2-(3-fluoro-5-(trifluoromethyl)benzyl)pyridin-4-yl)-5-(hydroxymethyl)-3-methyl-1H-pyrazole-4-carboxamide]
EC50 (human GPR52): 31.6 nM

Cc1nn(-c2ccnc(Cc3cc(F)cc(C(F)(F)F)c3)c2)c(CO)c1C(=O)NCCO [Intermediate 11, 1-(2-(3-fluoro-5-(trifluoromethyl)benzyl)pyridin-4-yl)-N-(2-hydroxyethyl)-5-(hydroxymethyl)-3-methyl-1H-pyrazole-4-carboxamide]
EC50 (human GPR52): 31.6 nM

CNC(=O)c1c(C)nn(-c2cc(Cc3cc(F)cc(C(F)(F)F)c3)ccn2)c1CO [Intermediate 12, 1-(4-(3-fluoro-5-(trifluoromethyl)benzyl)pyridin-2-yl)-5-(hydroxymethyl)-N,3-dimethyl-1H-pyrazole-4-carboxamide]
EC50 (human GPR52): 10 nM

Cc1nn(-c2cc(Cc3cc(F)cc(C(F)F)c3)ccn2)c(CO)c1C(N)=O [Intermediate 16, 1-(4-(3-(difluoromethyl)-5-fluorobenzyl)pyridin-2-yl)-5-(hydroxymethyl)-3-methyl-1H-pyrazole-4-carboxamide]
EC50 (human GPR52): 3.98 nM

— US20240376070A1, “GPR52 MODULATOR COMPOUNDS” (NXERA PHARMA UK LIMITED, priority 2021, published 2024)
